Measured values reported in patent publication US20170362283A1, “NISIN-BASED COMPOUNDS AND USE THEREOF IN THE TREATMENT OF BACTERIAL INFECTIONS” (UNIVERSITEIT UTRECHT HOLDING B.V., priority 2015, published 2017).
Read-outs that look alike come from different tables or passages of the source.

What was measured:
[1] = test system: VRE 155; format: cell-based; conditions: duplicate experiments
How it was run: (§1)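 Broth dilution MIC following CLSI M07-A9; overnight TSB cultures diluted to 0.5×10^6 CFU in TSB and incubated with compound at 37° C for 16 hours. MIC read by visual inspection of growth.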

[2] = test system: M. luteus; format: cell-based; conditions: duplicate experiments
How it was run: as §1

[3] = test system: E. faecium E1133; assay: BioScreen growth assay for E. faecium E1133; format: cell-based; conditions: 5 μM
Experimental: (§2) A BioScreen C instrument (Oy Growth Curves AB, Helsinki, Finland) was used to monitor effects of the compounds (6), (10), and (12) and the effect of compound (24) with R1-group (e), or Comparative compound B (nisin) on E. faecium growth (each compound administered at a fixed concentration 5 μM). E. faecium strains were inoculated at an initial OD660 of 0.05 into 300 μl TSB containing 1% DMSO and 1% glucose or into the same medium containing the antibiotic compounds at a final concentration of 5 μM. […]
(§3) The E. faecium strains used in these experiments are E. faecium E745 (vancomycin-ampicillin resistant hospital outbreak strain), E. faecium E980 (vancomycin-ampicillin susceptible human commensal isolate), E. Faecium E1133 (vancomycin-ampicillin resistant hospital outbreak strain), and E. faecium E1162 (vancomycin-susceptible ampicillin-resistant clinical isolate). The BioScreen growth assays for each strain was determined for the compounds (6), (10), (12) and also for compound (24) with R1-group (e) as well as nisin (Comparative compound B) and compared to non-treated strains, the results being shown in the Tables 9 to 12 below.

[4] = test system: erythrocytes; assay: Hemolysis assay; conditions: human erythrocytes, 1 h, at 32 μg/mL
Experimental: Human whole blood was centrifuged at 600×g for 15 min and levels of plasma and hematocrit were marked on the tube. Plasma was removed and the erythrocytes washed 3× with PBS (centrifuging at 600×g for 15 mins). After discarding the supernatant, the packed cells were stored on ice. 100 μL of the peptides (128 μg/mL in PBS, 2% DMSO) as well as a control solution comprised of 2% DMSO in PBS were added to the top row of a polypropylene, round-bottom 96 well plate and 50 μL of PBS to the rest of the wells. The peptides and the DMSO control solutions were then diluted serially down the rows. 200 μL of the packed cells were added to PBS (10 mL) and 50 μL of this suspension was added to each well. A column with DI water containing 0.1% Triton X-100 was used as the 100% lysis control, and the column containing the serially-diluted PBS (1.0% DMSO) control served as the 0% lysis reference. The cells were incubated at 37° C. for 1 h. After incubation the plates were centrifuged (800×g, 5 min) and 25 μL of the supernatant was added to 100 μL DI water in a flat-bottom plate (polystyrene). The absorption at 414 nm was recorded to measure the amount of free hemoglobin.

[5] = test system: MRSA WKZ2; format: cell-based, Staphylococcus aureus; conditions: duplicate experiments
How it was run: as §1

[6] = test system: MRSA USA300; format: cell-based, Staphylococcus aureus; conditions: duplicate experiments
How it was run: as §1

[7] = Lipid II-binding in model membranes (carboxyfluorescein efflux from LUVs); format: biochemical; conditions: concentration of 5 nM; CF-loaded DOPC LUVs with 0.2% lipid II
Experimental: Large unilamellar vesicles (LUVs), composed of 1,2-dioleoyl-sn-glycero-3-phosphocholine (DOPC) spiked with 0.2% lipid II, were loaded with carboxyfluorescein (CF). The CF efflux was monitored by measuring the increase in fluorescence intensity at 515 nm, with excitation at 492 nm. In a cuvette, a solution (1 mL) of CF-loaded vesicles (20 μM final concentration) in buffer (Tris.HCl, pH 7.0 containing 100 mM NaCl) was prepared and the relevant final concentration of compounds (6), (10), and (12), and also compound (24) with R1-group (e), were added and the mixture was stirred for 1 min and the fluorescence was recorded (A0). After ca. 10 seconds, nisin (comparative compound B) was added (5 nM final concentration) and the fluorescence was followed until it stabilized, then recorded (Astable). Total membrane leakage was induced by the addition of Triton-X100 (final concentration 0.1%) and the fluorescence was recorded (Atotal). The percentile values were calculated by: […]

[8] = test system: E. faecium E745; assay: BioScreen growth assay for E. faecium E745; format: cell-based; conditions: 5 μM
Experimental: as §2, §3

[9] = test system: thirty VRE strains
[10] = test system: E. faecium E980; assay: BioScreen growth assay for E. faecium E980; format: cell-based; conditions: 5 μM
Experimental: as §2, §3

With nisin [Compound B] the “MIC values VRE 155” value [1] was 5 µg/mL, the “MIC values M. luteus” value [2] was 0.02 to 0.03 µg/mL and the OD600 ([3]; time 0 h) was 0.016. The OD600 ([3]; time 4 h) was 0.009667, the OD600 ([3]; time 8 h) was 0.009333 and the OD600 ([3]; time 12 h) was 0.009333. The OD600 ([3]; time 16 h) was 0.008667, the hemolysis [4] was “negligible hemolysis” and the “MIC values MRSA WKZ2” value [5] was 10 µg/mL. The “MIC values MRSA USA300” value [6] was 10 µg/mL, the “leakage of the CF dye” value [7] was “about 50%” and the OD600 ([8]; time 0 h) was 0.01733. The OD600 ([8]; time 4 h) was 0.01033, the OD600 ([8]; time 8 h) was 0.01033 and the OD600 ([8]; time 12 h) was 0.01067. For the same substance, the OD600 ([8]; time 16 h) was 0.008667, the MIC ([9]; VRE strain E0013, GBR, vanA) was 8 µg/mL and the MIC ([9]; VRE strain E0072, NLD, vanA) was 2 µg/mL. It also gave an MIC ([9]; VRE strain E0300, USA, vanA) of 8 µg/mL, an MIC ([9]; VRE strain E0321, FRA, vanA) of 2 µg/mL and an MIC ([9]; VRE strain E0333, ISR, vanA) of 4 to 8 µg/mL. It also gave an MIC ([9]; VRE strain E0338, ITA, vanA) of 8 µg/mL, an MIC ([9]; VRE strain E0341, GBR, vanA) of 4 µg/mL and an MIC ([9]; VRE strain E0506, AUS, vanA) of 4 to 8 µg/mL. It also gave an MIC ([9]; VRE strain E0745, NLD, vanA) of 4 µg/mL, an MIC ([9]; VRE strain E1130, USA, vanA) of 4 to 8 µg/mL and an MIC ([9]; VRE strain E1441, GRC, vanA) of 4 µg/mL. It also gave an MIC ([9]; VRE strain E1679, BRA, vanA) of 4 µg/mL, an MIC ([9]; VRE strain E1763, BEL, vanA) of 8 µg/mL and an MIC ([9]; VRE strain E2297, USA, vanA) of 4 µg/mL. It also gave an MIC ([9]; VRE strain E2359, SGP, vanB) of 8 µg/mL, an MIC ([9]; VRE strain E2365, HUN, vanB) of 2 to 4 µg/mL and an MIC ([9]; VRE strain E2373, SRB, vanA) of 4 µg/mL. It also gave an MIC ([9]; VRE strain E6016, LVA, vanA) of 4 µg/mL, an MIC ([9]; VRE strain E7312, NLD, vanA) of 4 µg/mL and an MIC ([9]; VRE strain E7314, NLD, vanB) of 4 to 8 µg/mL. The MIC ([9]; VRE strain E7319, NLD, vanA) was 4 µg/mL, the MIC ([9]; VRE strain E7329, NLD, vanA) was 4 µg/mL and the MIC ([9]; VRE strain E7401, NLD, vanB) was 8 µg/mL. It also gave an MIC ([9]; VRE strain E7403, NLD, vanB) of 4 µg/mL, an MIC ([9]; VRE strain E7413, NLD, vanA) of 4 µg/mL and an MIC ([9]; VRE strain E7424, NLD, vanB) of 4 µg/mL. It also gave an MIC ([9]; VRE strain E7464, NLD, vanB) of 4 µg/mL, an MIC ([9]; VRE strain E8218, NLD, vanB) of 4 µg/mL and an MIC ([9]; VRE strain E8235, NLD, vanB) of 4 µg/mL. The MIC ([9]; VRE strain E8237, NLD, vanA) was 8 µg/mL, the OD600 ([10]; time 0 h) was 0.016 and the OD600 ([10]; time 4 h) was 0.01167. For the same substance, the OD600 ([10]; time 8 h) was 0.011, the OD600 ([10]; time 12 h) was 0.011 and the OD600 ([10]; time 16 h) was 0.01067.
